Reference: patent publication US11707511B2, “Vaccine compositions and methods of using the same” (The Board of Supervisors of Louisiana State University and …, priority 2017, dated 2023)
“Also recorded” adds a separate entry of the source.

Columns and labels:
HLA-DR types = settings: of the most common HLA-DR types tested to date; cited from earlier work
C. albicans 3153A = experiment: Amp B - antibody combination therapy of mice with disseminated candidiasis; assay type: in vivo, Candida albicans; settings: BALB/c mice, Amp B 0.5 mg/kg
Method: Mice were then given by i.v. of 5×10e5 of C. albicans 3153A yeast cells, 8 hour later the mice received i.p. 0.5 mg Amp B/kg body weight with each mAb (E2-9, M2-4, 2D5F7 and 2B10C1). Mice without any treatment and mice treated with antifungal drug alone were used as controls. Survival curves were scored and MST were measured.

[1] = test system: C. glabrata CBS138 (ATCC 2001); experiment: Peptide-vaccinated, cyclophosphamide-immunosuppressed mice challenged with C. glabrata; assay type: in vivo; settings: FIG. 4; 1×10^7 cells/mouse
Method: (§1) Active Immunizations with peptide pulsed dendritic cells. […] It allows us to perform rapid throughput evaluation of candidate short peptides. When protective double universal peptide conjugate(s) become identified by this study, immunization approaches suitable for human use will be applied in further studies. All active vaccinations were conducted as previously described (6,7,9). DCs were pulsed in vitro with universal peptide as described before with minor modification by totally removing CFA for last booster (6). Briefly, DCs in culture were pulsed with the peptide antigen (1 μM) on day 6. On day 7, PGE2 (10^-7M) was added along with LPS (2 μg/ml, Sigma) for 24 h to induce DC maturation. On day 9, antigen-pulsed DCs were washed extensively and […] in 200 μl DPBS were given by intraperitoneal (i.p.) route as the priming dose to mice. The mice were boosted i.p. at day 14 and day 28 with fresh antigen-pulsed DCs without adjuvant.
Peptide vaccinated mice were also challenged with C. glabrata, which has emerged as the second most common cause of invasive candidiasis in the US. Since C. glabrata is not lethal for wild-type mice, immunosuppression in vaccinated mice were induced by cyclophosphamide (50 mg/kg) treatment for two weeks, and then mice were challenged with live C. glabrata cells [CBS138 (ATCC 2001), 1×10^7 cells/mouse]. […] CFU experiments will be performed and completed. […]

[2] = test system: C. tropicalis (ATCC 20336); experiment: Peptide-vaccinated mice challenged with lethal dose of C. tropicalis; assay type: in vivo; settings: for survival: FIG. 3A, i.v. challenge 1×10^6/mouse, up to 80 days; for live fungal cells (CFU) in kidneys as compared to controls: FIG. 3B, p<0.001
Method: as §1
Peptide-vaccinated mice were challenged with lethal dose of live C. tropicalis cells (ATCC 20336; i.v. challenge dose: 1×10^6/mouse).

C. albicans = experiment: Active immunization with peptide-pulsed dendritic cells, disseminated candidiasis caused by C. albicans in mice; assay type: in vivo, Candida albicans; settings: for protection against disseminated candidiasis caused by C. albicans: FIG. 2, antigen-pulsed DC vaccine without CFA; for CFUs in kidneys as compared to controls: FIG. 2 B and D
Method: as §1
Table 2 lists universal peptide vaccines that induced protection against disseminated candidiasis caused by C. albicans in mice. The universal peptide vaccines listed in Table 1 are expressed at high homology by all analyzed medically important Candida species in addition to C. albicans (see details at Table 2). By dendritic cell (DC) based immunization approach as described herein, each of the universal peptide vaccines was able to protect mice against disseminated candidiasis caused by C. albicans, with the survival rate 80-100% up to 80-120 days post challenge.
(§2) To perform rapid throughput evaluation of peptide vaccine candidates, immunizations were done by use of the similar antigen-pulsed DC based vaccine strategy with modification by totally removing CFA from vaccine formula. Fba peptide was used as positive control.

[3] = Induction of specific anti-peptide antibody responses in immunized mice; assay type: in vivo; settings: BALB/c mice; peptide-pulsed DC; data not shown
From the text: as §2
The double chimeric peptide conjugate vaccines have been tested for their abilities to induce specific anti-peptide antibodies and protective immunity against the disease caused by C. albicans. […] The enhancement in vaccine efficacy was evidenced by both increased survival and reduced or non-detectable fungal burden (colony forming units, CFUs) in kidneys of animals.

[4] = when incorporated into several peptide antigens; average; cited from earlier work

Row | Molecule | protection against disseminated candidiasis caused by C. glabrata [1] | survival [2] | live fungal cells (CFU) in kidneys as compared to controls [2] | protection against disseminated candidiasis caused by C. albicans (C. albicans) | CFUs in kidneys as compared to controls (C. albicans) | specific antibody responses [3] | also measured
1 | AKFVAAWTLKAAA [PADRE] | – | – | – | – | – | – | HLA-DR types bound with high or intermediate affinity (HLA-DR types): 15 of 16
2 | C[C@@H]1[C@H](O)[C@@H](C)/C=C/C=C/C=C/C=C/C=C/C=C/C=C/[C@H](O[C@@H]2O[C@H](C)[C@@H](O)[C@H](N)[C@@H]2O)C[C@@H]2O[C@](O)(C[C@@H](O)C[C@@H](O)[C@H](O)CC[C@@H](O)C[C@@H](O)CC(=O)O[C@H]1C)C[C@H](O)[C@H]2C(=O)O [Amp B, amphotericin B] | – | – | – | – | – | – | therapeutic effect / survival time (C. albicans 3153A; treatment 8 hours post-infection, in words): the same susceptible to the disease as mice that received no Amp B; also recorded: no therapeutic effect; MST (mean survival times) (C. albicans 3153A; Table 16, 5×10e5 C. albicans 3153A i.v., treatment i.p. 8 hours post-infection): 14.5 ± 3.7 days
3 | YDQVLDLSLLFNAIP [Met6-2] | high degree protection | 80% | significantly reduced live fungal cells | good protective responses; also recorded: high degree protection | reduced or non-detectable CFUs | able to induce specific antibody responses | –
4 | FbaU1: putative universal Fba peptide; Table 17 equates it with Fba3 (SEQ ID NO: 36) but tested as a separate peptide (FAIPAINVTSSSTVVAALE) | high degree protection | 100% | significantly reduced live fungal cells | good protective responses; also recorded: high degree protection | reduced or non-detectable CFUs | able to induce specific antibody responses | –
5 | RGD | – | – | – | – | – | – | enhancement of antibody titers [4]: 10 times
